Results from patent US10233186B2, “Inhibitors of activin receptor-like kinase” (BLUEPRINT MEDICINES CORPORATION, priority 2016, dated 2019).

Key:
[1] = target: T1, ALK2 R206H (GST-tagged mutant ALK2) (Homo sapiens, UniProt Q04771, R206H); assay: ALK binding assay (LANTHASCREEN TR-FRET competitive binding, displacement of Kinase Tracer 178); settings: ALK2 R206H, LANTHASCREEN TR-FRET competitive binding; read-out: Binding Assay (IC50)
T1 construct: purchased Carna Bioscience or ThermoFisher 09-148 or PV6232
T1 sequence (Q04771 21-509 R206H): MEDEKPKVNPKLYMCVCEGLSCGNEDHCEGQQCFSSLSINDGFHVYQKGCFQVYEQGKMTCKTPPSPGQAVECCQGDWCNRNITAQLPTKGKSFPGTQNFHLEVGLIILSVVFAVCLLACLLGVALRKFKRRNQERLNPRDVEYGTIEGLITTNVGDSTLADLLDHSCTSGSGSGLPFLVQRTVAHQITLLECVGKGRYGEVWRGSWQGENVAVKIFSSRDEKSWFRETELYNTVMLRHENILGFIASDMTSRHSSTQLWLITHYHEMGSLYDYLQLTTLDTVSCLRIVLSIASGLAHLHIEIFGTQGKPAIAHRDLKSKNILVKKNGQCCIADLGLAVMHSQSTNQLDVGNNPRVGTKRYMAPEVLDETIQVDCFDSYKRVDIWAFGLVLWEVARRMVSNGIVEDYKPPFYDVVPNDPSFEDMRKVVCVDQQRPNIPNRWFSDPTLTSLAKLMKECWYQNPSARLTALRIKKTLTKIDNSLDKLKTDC

human ALK2 R206H = target: T2, human ALK2 R206H (Homo sapiens, UniProt Q04771, R206H); assay: Cell-based ALK2-R206H cell activity assay (Smad1-Ser463/Ser465 phosphorylation by AlphaLISA in HEK293-ALK2-R206H cells); settings: read-out: Cell Line (Cell Assay IC50)
T2 construct: expressed in transfected cells; host or cells: HEK293 (ATCC CRL1573), lentivirus transduction, blasticidin selection
T2 sequence (Q04771 21-509 R206H): T1 sequence (Q04771 21-509 R206H)
In short: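 Stable HEK293 cells expressing C-terminally FLAG-tagged human ALK2 R206H (lentiviral, blasticidin-selected) were treated with compounds in 10-point, 3-fold dilutions from 10 μM or 1 μM top, in duplicate. Smad1 Ser463/Ser465 phosphorylation was read by AlphaLISA.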

Row | SMILES | IC50 [1] | IC50 (human ALK2 R206H)
1 | CC(C)N1CCC(c2ccc(-c3cc4c(N5CCN(C(=O)OC6COC6)[C@H](C)C5)ccnn4c3)cc2)CC1 [Compound 669] | < 10 nM | < 100 nM
2 | CC(C)NC(=O)N1CCN(c2ccnn3cc(-c4ccc([C@]5(C)CN(C(C)C)CCN5C)cc4)cc23)CC1 [Compound 671] | < 10 nM | < 100 nM
3 | CC(C)NC(=O)N1CCN(c2ccnn3cc(-c4ccc([C@@]5(C)CN(C(C)C)CCN5C)cc4)cc23)CC1 [Compound 672] | < 10 nM | < 100 nM
4 | CCNC(=O)N1CCN(c2ccnn3cc(-c4ccc([C@]5(OCC)CCCN(C(C)C)C5)cc4)cc23)CC1 [Compound 673] | < 10 nM | < 100 nM
5 | CCNC(=O)N1CCN(c2ccnn3cc(-c4ccc([C@@]5(OCC)CCCN(C(C)C)C5)cc4)cc23)CC1 [Compound 674] | < 10 nM | < 100 nM
6 | CCNC(=O)N1CCN(c2ccnn3cc(-c4ccc(C5(OCC)CCN(C(C)C)CC5)cc4)cc23)CC1 [Compound 675] | < 10 nM | < 100 nM
7 | CCO[C@]1(c2ccc(-c3cc4c(N5CCN(C(=O)NC(C)C)CC5)ccnn4c3)cc2)CCN(C(C)C)C1 [Compound 676] | < 10 nM | < 100 nM
8 | CCO[C@@]1(c2ccc(-c3cc4c(N5CCN(C(=O)NC(C)C)CC5)ccnn4c3)cc2)CCN(C(C)C)C1 [Compound 677] | < 10 nM | < 100 nM
9 | CC(C)N1CC[C@H](O)[C@@H](c2ccc(-c3cc4c(N5CCN(C(=O)OC6COC6)CC5)ccnn4c3)cc2)C1 [Compound 678] | < 10 nM | < 100 nM
10 | CC(C)N1CC[C@@H](O)[C@H](c2ccc(-c3cc4c(N5CCN(C(=O)OC6COC6)CC5)ccnn4c3)cc2)C1 [Compound 679] | < 10 nM | < 100 nM
11 | COC1(c2ccc(-c3cc4c(N5CCN(C(=O)C6CC6)CC5)ccnn4c3)cc2F)CCN(C(C)C)CC1 [Compound 680] | < 10 nM | < 100 nM
12 | COC1(c2ccc(-c3cc4c(N5CCN(C(=O)[C@H]6C[C@@H]6F)CC5)ccnn4c3)cc2)CCN(C(C)C)CC1 [Compound 681] | < 10 nM | < 100 nM
13 | COC1(c2ccc(-c3cc4c(N5CCN(C(=O)C6CC6)CC5)ccnn4c3)c(F)c2)CCN(C(C)C)CC1 [Compound 682] | < 10 nM | < 100 nM
14 | CO[C@]1(c2ccc(-c3cc4c(N5CCN(C(=O)C6CC6)CC5)ccnn4c3)cc2F)CCCN(C(C)C)C1 [Compound 683] | < 10 nM | < 100 nM
15 | CO[C@@]1(c2ccc(-c3cc4c(N5CCN(C(=O)C6CC6)CC5)ccnn4c3)cc2F)CCCN(C(C)C)C1 [Compound 684] | < 10 nM | < 100 nM
16 | COC1(c2ccc(-c3cc4c(N5CCN(C(=O)OC(C)C)CC5)ccnn4c3)cc2)CCN(C(C)C)CC1 [Compound 685] | < 10 nM | < 100 nM
17 | CO[C@@]1(c2ccc(-c3cc4c(N5CCN(C(=O)NC(C)C)CC5)ccnn4c3)nc2)CCCN(C(C)C)C1 [Compound 686] | < 10 nM | < 100 nM
18 | CO[C@]1(c2ccc(-c3cc4c(N5CCN(C(=O)NC(C)C)CC5)ccnn4c3)nc2)CCCN(C(C)C)C1 [Compound 687] | < 10 nM | < 100 nM
19 | COC1(c2ccc(-c3cc4c(N5CCN(C(=O)NC(C)C)CC5)ccnn4c3)nc2)CCN(C(C)C)CC1 [Compound 688] | < 10 nM | < 100 nM
20 | COC1(c2cnc(-c3cc4c(N5CCN(C(=O)C6CC6)CC5)ccnn4c3)c(F)c2)CCN(C(C)C)CC1 [Compound 689] | < 10 nM | 100 to 500 nM
21 | CC(C)N1CCC[C@@](F)(c2ccc(-c3cc4c(N5CCN(C(=O)OC6COC6)CC5)ccnn4c3)cc2)C1 [Compound 690] | < 10 nM | < 100 nM
22 | CC(C)N1CCC[C@](F)(c2ccc(-c3cc4c(N5CCN(C(=O)OC6COC6)CC5)ccnn4c3)cc2)C1 [Compound 691] | < 10 nM | < 100 nM
23 | CC(C)N1CCC[C@@H](c2ccc(-c3cc4c(N5CCN(C(=O)OC6COC6)CC5)ccnn4c3)cc2F)C1 [Compound 692] | < 10 nM | < 100 nM
24 | CC(C)N1CCC[C@H](c2ccc(-c3cc4c(N5CCN(C(=O)OC6COC6)CC5)ccnn4c3)cc2F)C1 [Compound 693] | < 10 nM | < 100 nM
25 | CC(C)N1CCC(c2ccc(-c3cc4c(N5CCN(C(=O)OC6COC6)CC5)ccnn4c3)c(F)c2)CC1 [Compound 694] | < 10 nM | < 100 nM

Row | SMILES | IC50 [1] | IC50 (human ALK2 R206H)
26 | CC(C)N1CCC[C@@](F)(c2ccc(-c3cc4c(N5CCN(C(=O)OC6COC6)CC5)ccnn4c3)nc2)C1 [Compound 695] | < 10 nM | < 100 nM
27 | CC(C)N1CCC[C@](F)(c2ccc(-c3cc4c(N5CCN(C(=O)OC6COC6)CC5)ccnn4c3)nc2)C1 [Compound 696] | < 10 nM | < 100 nM
28 | CCNC(=O)N1CCN(c2ccnn3cc(-c4ccc(C5(OC)CCN(C(C)C)CC5)c(F)c4)cc23)CC1 [Compound 697] | < 10 nM | < 100 nM
29 | CCNC(=O)N1CCN(c2ccnn3cc(-c4ccc([C@@]5(OC)CCCN(C(C)C)C5)c(F)c4)cc23)CC1 [Compound 698] | < 10 nM | < 100 nM
30 | CCNC(=O)N1CCN(c2ccnn3cc(-c4ccc([C@]5(OC)CCCN(C(C)C)C5)c(F)c4)cc23)CC1 [Compound 699] | < 10 nM | < 100 nM
31 | CCOC(=O)N1CCN(c2ccnn3cc(-c4ccc(C5(OC)CCN(C(C)C)CC5)cc4F)cc23)CC1 [Compound 701, ethyl 4-(6-(2-fluoro-4-(1-isopropyl-4-methoxypiperidin-4-yl)phenyl)pyrrolo[1,2-b]pyridazin-4-yl)piperazine-1-carboxylate] | < 10 nM | < 100 nM
32 | CC(C)N1CC[C@@H](c2ccc(-c3cc4c(N5CCN(C(=O)[C@H]6CC[C@H](C#N)CC6)CC5)ccnn4c3)nc2)C1 [Compound 702] | < 10 nM | < 100 nM
33 | CC(C)N1CC[C@H](c2ccc(-c3cc4c(N5CCN(C(=O)[C@H]6CC[C@H](C#N)CC6)CC5)ccnn4c3)nc2)C1 [Compound 703] | < 10 nM | < 100 nM
34 | CC(C)N1CCC(c2ccc(-c3cc4c(N5CCN(C(=O)OC6CC(C#N)C6)CC5)ccnn4c3)cc2)CC1 (stereo not shown) [Compound 704] | < 10 nM | < 100 nM
35 | COC1(c2ccc(-c3cc4c(N5CCN(C(=O)[C@H]6C[C@@H]6C#N)CC5)ccnn4c3)cc2)CCN(C(C)C)CC1 [Compound 705] | < 10 nM | < 100 nM
36 | CC(C)N1CC(O)(c2ccc(-c3cc4c(N5CCN(C(=O)C6CCC(C#N)CC6)CC5)ccnn4c3)cc2)C1 (stereo not shown) [Compound 706] | < 10 nM | < 100 nM
37 | CC(C)N1CCC(c2ccc(-c3cc4c(N5CCN(C(=O)NCC(F)(F)F)CC5)ccnn4c3)cc2)CC1 [Compound 708] | < 10 nM | < 100 nM
38 | CC(C)N1CCC(c2ccc(-c3cc4c(N5CCN(C(=O)OC6CCOCC6)CC5)ccnn4c3)cc2)CC1 [Compound 709] | < 10 nM | 100 to 500 nM
39 | COCC(C)N1CCC(OC)(c2ccc(-c3cc4c(N5CCN(C(=O)C6CC6)CC5)ccnn4c3)nc2)CC1 (stereo not shown) [Compound 710] | < 10 nM | < 100 nM
40 | COC[C@H](C)N1CCC(OC)(c2ccc(-c3cc4c(N5CCN(C(=O)C6CC6)CC5)ccnn4c3)nc2)CC1 [Compound 711] | < 10 nM | < 100 nM
41 | CCOC1(c2ccc(-c3cc4c(N5CCN(C(=O)NC(C)C)CC5)ccnn4c3)cc2)CCN(C(C)C)CC1 [Compound 712] | < 10 nM | < 100 nM
42 | COC1(c2ccc(-c3cc4c(N5CCN(C(=O)OC6COC6)CC5)ccnn4c3)cc2)CCN(C(C)C)CC1 [Compound 713] | < 10 nM | < 100 nM
43 | COC1(c2ccc(-c3cc4c(N5CCN(C(=O)NC(C)C)CC5)ccnn4c3)nc2)CCN(C2COC2)CC1 [Compound 714] | < 10 nM | < 100 nM
44 | CCOC1(c2ccc(-c3cc4c(N5CCN(C(=O)NC(C)C)CC5)ccnn4c3)nc2)CCN(C(C)C)CC1 [Compound 715] | < 10 nM | < 100 nM
45 | CCO[C@@]1(c2ccc(-c3cc4c(N5CCN(C(=O)NC(C)C)CC5)ccnn4c3)nc2)CCCN(C(C)C)C1 [Compound 716] | < 10 nM | < 100 nM
46 | CO[C@@]1(c2ccc(-c3cc4c(N5CCN(C(=O)OC6COC6)CC5)ccnn4c3)nc2)CCCN(C(C)C)C1 [Compound 718] | < 10 nM | < 100 nM
47 | COC1(c2ccc(-c3cc4c(N5CCN(C(=O)NC(C)C)CC5)ccnn4c3)cc2F)CCN(C(C)C)CC1 [Compound 720] | < 10 nM | < 100 nM
48 | COC1(c2ccc(-c3cc4c(N5CCN(C(=O)NC(C)C)CC5)ccnn4c3)c(F)c2)CCN(C(C)C)CC1 [Compound 721] | < 10 nM | < 100 nM
49 | COC1(c2ccc(-c3cc4c(N5CCN(C(=O)NC(C)C)CC5)ccnn4c3)cc2F)CCCN(C(C)C)C1 (stereo not shown) [Compound 722] | < 10 nM | < 100 nM
50 | CO[C@]1(c2ccc(-c3cc4c(N5CCN(C(=O)NC(C)C)CC5)ccnn4c3)cc2F)CCCN(C(C)C)C1 [Compound 723] | < 10 nM | < 100 nM
